This note sets out measurements from US20250161338A1, “Compounds for Anti-aging Intervention” (AGENCY FOR SCIENCE, TECHNOLOGY AND RESEARCH, priority 2022, published 2025).

The test system of assay [1] is prototrophic yeast strain (CEN.PK113-7D). The assay can be described thus: Yeast outgrowth in YPD liquid medium (CLS of aged cells). In kind it is cell-based, Saccharomyces cerevisiae. In short, it runs like this:
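Cultures aged at 30 °C in SD medium with double-diluted rapamycin (0–10 nM) or sugars/polyols (0–8 mM). On day 14, 3 µL of culture was transferred into 200 µL YPD and outgrowth read as OD600. Survival expressed relative to day 1 outgrowth (100%).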

For assay [2], the system named is IMR90 cells. As to the kind of experiment: CLS in human cells, PrestoBlue outgrowth assay (IMR90). It is filed as cell-based. The method, then: (§1) Human embryonic kidney 293 (HEK293) cells (ATCC, Manassas, Virginia, United States of America), lung epithelial (A549) cells (ATCC, Manassas, Virginia, United States of America) and fibroblast (IMR90) cells (ATCC, Manassas, Virginia, United States of America) were cultured in the standard D10 medium, consisting of high-glucose DMEM (HyClone, Cytiva, Marlborough, Massachusetts, USA) supplemented with 10% Fetal Bovine Serum (FBS) (Gibco™, ThermoFisher Scientific, Waltham, Massachusetts, USA) and 1% Penicillin Streptomycin Solution (Gibco™, ThermoFisher Scientific, Waltham, Massachusetts, USA). All cells were cultured in a humidified incubator with 5% CO2 at 37° C.
The seeding, washing and trypsinization process was performed similarly to that for the crystal violet assay. 80,000 cells were seeded in a 96-well culture plate with or without compound treatment. […] After one day of growth in a 37° C. incubator with 5% CO2, the cell number was assessed with PrestoBlue™ Cell Viability Reagent (Invitrogen™, Waltham, Massachusetts, USA) according to the manufacturer's protocol. […] After incubation in a 37° C. incubator with 5% CO2 for 3 to 4 hours, reading was taken with a BioTek Synergy MX microplate reader (BioTek, Winooski, Vermont, United States) at excitation and emission wavelengths of 560 nm and 590 nm, respectively. […]

The next assay deals with HEK293 cells. The assay can be described thus: CLS in human cells, PrestoBlue outgrowth assay (HEK293). In kind it is cell-based. The method, then: as §1
The seeding, washing and trypsinization process was performed similarly to that for the crystal violet assay. 80,000 cells were seeded in a 96-well culture plate with or without compound treatment. At different age time points after seeding, floating dead cells were aspirated with exhausted D10 medium, cells were gently washed with 1×PBS to remove D10 medium residue and treated with 0.2 mL of 0.25% trypsin. […] After one day of growth in a 37° C. incubator with 5% CO2, the cell number was assessed with PrestoBlue™ Cell Viability Reagent (Invitrogen™, Waltham, Massachusetts, USA) according to the manufacturer's protocol. […] After incubation in a 37° C. incubator with 5% CO2 for 3 to 4 hours, reading was taken with a BioTek Synergy MX microplate reader (BioTek, Winooski, Vermont, United States) at excitation and emission wavelengths of 560 nm and 590 nm, respectively.
PrestoBlue (PB) is a resazurin-based reagent used to detect cell viability and traces of cytotoxicity in the medium. It produces results that can be detected both colorimetrically and fluorometrically. […] The resazurin component is reduced to form resorufin by live cells, resulting in a visible change from blue colour to red colour in the reagent, at the same time developing fluorescence, which can be easily detected by a microplate reader. […] The PB assay was easy to perform as the reagent is a commercially available as ready-to-use solution.

Another assay relates to HEK293 cell line. As to the kind of experiment: CLS in human cells using crystal violet outgrowth assay. In kind it is cell-based. The following applies: Day 4 culture (FIG. 18A); seven days of outgrowth. The method, then: as §1
80,000 cells were seeded in a 96-well culture plate with or without compound treatment. On Day 4, Day 6, and Day 8 after seeding, floating dead cells were aspirated with exhausted D10 medium. Then, attached cells were gently washed with 1×PBS to remove D10 medium residue and treated with 0.2 mL of 0.25% trypsin. Cells were gently mixed by pipetting and a 2% aliquot (4 μL) was transferred to 6-well experiment plates with fresh D10 medium. […]
In this approach, an outgrowth assay was used to determine the number of live cells in the 6-well experiment plate using crystal violet staining. […] These live cells were then stained with crystal violet dye and assessed qualitatively.

Assay [3] relates to IMR90 cells. As to the kind of experiment: CLS in human cells, propidium iodide fluorescence-based method (IMR90). It is filed as cell-based. The conditions noted are these: sixth day after seeding. The method, then:
as §1
The stock solution of rapamycin, hemin, 5-fluorouracil, atorvastatin, and methotrexate was prepared in DMSO, followed by serial dilution to form various concentrations used in the experiment. The final DMSO concentration was kept at 0.05% in all experiments. The stock solution of 2,5-anhydro-D-mannitol was prepared in D10 medium. The chemical library used in screening were tested at 1 μM concentrations. Controls used were the same as the solvent applied, DMSO or water.
The assay was performed by preparing the cells with PI (2 μg/mL or 5 μg/mL) in a D10 medium. […] At different age time points, reading was taken with a Synergy MX microplate reader (BioTek, Winooski, Vermont, United States) at 535 nm excitation and 617 nm emission.

Consider `OC[C@H]1O[C@H](CO)[C@@H](O)[C@@H]1O` [2,5-AM, 2,5-anhydro-D-mannitol], for which the “antiaging activity in outgrowth assays” value in assay [1] (Day 1, 4, 7 and 10, FIGS. 6 to 8) is on record as “verified by outgrowth assays”. The same molecule came in with an Outgrowth in assay [1] (concentration tested 300 μg/mL, OD600 nm after 24 h in YPD, age point day 14) of 1.3. In the assay on IMR90 cells [2] (2.5 mM), the “more surviving cells compared to the untreated group” value is recorded as 59.05%. Further, the “more viable cells compared to the untreated group” value is recorded as 59.89% in the assay on IMR90 cells [2] (5 mM) and 76.31% in the assay on HEK293 cells (2.5 mM, HEK293). Further, in the assay on HEK293 cells (5 mM, HEK293), the “more surviving cells relative to the untreated group” value amounted to 123.7%. Further, in the assay on HEK293 cells (different concentrations, Day 4 normalized to Day 1 (FIG. 19)), the “CLS of HEK293 cells by outgrowth method” value is “Trends of lifespan extension”. The “cellular lifespan (crystal violet, qualitative)” value in the assay with HEK293 cell line is listed as “able to increase cellular lifespan”. Besides, the “more live cells compared to the untreated control” value was found to be 32.33% in the assay with IMR90 cells [3] (2.5 mM) and 48.08% in the assay on IMR90 cells [3] (5 mM).
